Results reported in US7754727B2, “4-phenylpiperidine derivatives as renin inhibitors” (Novartis AG, priority 2003, dated 2010).
pIC50: −log10 of the molar value. Counter-ions that a name gives are not always drawn.

Target: T1, Recombinant human renin (Homo sapiens, UniProt P00797)
T1 construct: made in house; host or cells: Chinese Hamster Ovary cells
T1 sequence (P00797 67-406): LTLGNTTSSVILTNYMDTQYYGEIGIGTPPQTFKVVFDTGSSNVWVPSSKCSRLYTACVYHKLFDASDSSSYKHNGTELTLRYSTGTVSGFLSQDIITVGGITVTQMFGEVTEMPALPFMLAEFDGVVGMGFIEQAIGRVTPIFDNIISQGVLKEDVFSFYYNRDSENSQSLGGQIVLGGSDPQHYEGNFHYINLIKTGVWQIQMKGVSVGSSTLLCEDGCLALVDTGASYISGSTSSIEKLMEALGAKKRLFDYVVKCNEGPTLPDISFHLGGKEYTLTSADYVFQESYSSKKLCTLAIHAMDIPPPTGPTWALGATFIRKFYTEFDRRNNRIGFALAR
Test: FRET assay of inhibition of renin activity
Format: biochemical
Conditions: recombinant human renin 4 nM, 1 h at RT, pH 7.4
Procedure: Recombinant human renin (expressed in Chinese Hamster Ovary cells and purified using standard methods) at 4 nM concentration is incubated with test compound at various concentrations for 1 h at RT in 0.1 M Tris-HCl buffer, pH 7.4, containing 0.05 M NaCl, 0.5 mM EDTA and 0.05% CHAPS. Synthetic peptide substrate Arg-Glu(EDANS)-Ile-His-Pro-Phe-His-Leu-Val-Ile_His_Thr-Lys(DABCYL)-Arg9 is added to a final concentration of 2 μM and increase in fluorescence is recorded at an excitation wave-length of 340 nm and at an emission wave-length of 485 nm in a microplate spectro-fluorimeter. IC50 values are calculated from percentage of inhibition of renin activity as a function of test compound concentration (Fluorescence Resonance Energy Transfer, FRET, assay).

pIC50: ~7.15
SMILES: c1ccc(-c2cccc([C@H]3CCNC[C@@H]3OCc3ccc4ccccc4c3)c2)cc1 (relative stereo) [Example 1, (3R*,4R*)-4-Biphenyl-3-yl-3-(naphthalen-2-ylmethoxy)-piperidine hydrochloride]
